{"source": "patent US20090181898A1", "about": "“ABUSE-RESISTANT A[…]” (SHIRE LLC, priority 2002, published 2009)", "key": {"[1]": {"experiment": "Oral bioavailability of L-lysine-d-amphetamine dimesylate at various doses 1.5-60 mg/kg (ELISA)", "conditions": "rat", "description": "The mean plasma concentrations for 1.5, 3, and 6 mg/kg are shown in Table 6, Table 7, and Table 8, respectively."}, "[2]": {"experiment": "Pharmacokinetics of d-amphetamine in male and female beagle dogs after oral administration, […]", "conditions": "oral […] d-amphetamine base"}, "children with ADHD": {"tested_on": "children with ADHD", "experiment": "Pediatric crossover efficacy study, SKAMP-Deportment score"}}, "note": "Marks after values point to notes of the source that are not given here."}
{"molecule": "d-amphetamine", "values": [{"measurement": "AUC of d-amphetamine", "setting": "[1]; 3 mg/kg", "value": 587, "unit": "ng·h/mL"}, {"measurement": "Cmax of d-amphetamine", "setting": "[1]; 3 mg/kg", "value": 141, "unit": "ng/mL"}, {"measurement": "Tmax of d-amphetamine", "setting": "[1]; 3 mg/kg", "value": 60, "unit": "min"}, {"measurement": "Tmax, Percent (of Amp)", "setting": "[1]; 3 mg/kg", "value": 100, "unit": "%"}, {"measurement": "Mean plasma amphetamine concentration", "setting": "[1]; 3 mg/kg, 0 h", "value": 0, "unit": "ng/mL"}, {"measurement": "Mean plasma amphetamine concentration", "setting": "[1]; 3 mg/kg, 0.5 h", "value": 107, "unit": "ng/mL"}, {"measurement": "Mean plasma amphetamine concentration", "setting": "[1]; 3 mg/kg, 1 h", "value": 121, "unit": "ng/mL"}, {"measurement": "Mean plasma amphetamine concentration", "setting": "[1]; 3 mg/kg, 3 h", "value": 91, "unit": "ng/mL"}, {"measurement": "Mean plasma amphetamine concentration", "setting": "[1]; 3 mg/kg, 5 h", "value": 62, "unit": "ng/mL"}, {"measurement": "Mean plasma amphetamine concentration", "setting": "[1]; 3 mg/kg, 8 h", "value": 19, "unit": "ng/mL"}, {"measurement": "AUC of d-amphetamine", "setting": "[1]; 6 mg/kg", "value": 807, "unit": "ng·h/mL"}, {"measurement": "Cmax of d-amphetamine", "setting": "[1]; 6 mg/kg", "value": 205, "unit": "ng/mL"}, {"measurement": "Tmax of d-amphetamine", "setting": "[1]; 6 mg/kg", "value": 33.8, "unit": "min"}, {"measurement": "Tmax, Percent (of Amp)", "setting": "[1]; 6 mg/kg", "value": 100, "unit": "%"}, {"measurement": "Mean plasma amphetamine concentration", "setting": "[1]; 6 mg/kg, 0 h", "value": 0, "unit": "ng/mL"}, {"measurement": "Mean plasma amphetamine concentration", "setting": "[1]; 6 mg/kg, 0.5 h", "value": 186, "unit": "ng/mL"}, {"measurement": "Mean plasma amphetamine concentration", "setting": "[1]; 6 mg/kg, 1 h", "value": 167, "unit": "ng/mL"}, {"measurement": "Mean plasma amphetamine concentration", "setting": "[1]; 6 mg/kg, 3 h", "value": 111, "unit": "ng/mL"}, {"measurement": "Mean plasma amphetamine concentration", "setting": "[1]; 6 mg/kg, 5 h", "value": 78, "unit": "ng/mL"}, {"measurement": "Mean plasma amphetamine concentration", "setting": "[1]; 6 mg/kg, 8 h", "value": 35, "unit": "ng/mL"}, {"measurement": "AUC of d-amphetamine", "setting": "[1]; 12 mg/kg", "value": "2,738 ng · h/ml"}, {"measurement": "Cmax of d-amphetamine", "setting": "[1]; 12 mg/kg", "value": 621, "unit": "ng/mL"}, {"measurement": "Tmax of d-amphetamine", "setting": "[1]; 12 mg/kg", "value": 56.3, "unit": "min"}, {"measurement": "Tmax, Percent (of Amp)", "setting": "[1]; 12 mg/kg", "value": 100, "unit": "%"}, {"measurement": "Mean plasma amphetamine concentration", "setting": "[1]; 12 mg/kg, 0.5 h", "value": 621, "unit": "ng/mL"}, {"measurement": "Mean plasma amphetamine concentration", "setting": "[1]; 12 mg/kg, 1 h", "value": 512, "unit": "ng/mL"}, {"measurement": "Mean plasma amphetamine concentration", "setting": "[1]; 12 mg/kg, 3 h", "value": 376, "unit": "ng/mL"}, {"measurement": "Mean plasma amphetamine concentration", "setting": "[1]; 12 mg/kg, 5 h", "value": 314, "unit": "ng/mL"}, {"measurement": "Mean plasma amphetamine concentration", "setting": "[1]; 12 mg/kg, 8 h", "value": 103, "unit": "ng/mL"}, {"measurement": "Cmax of d-amphetamine", "setting": "[1]; 30 mg/kg", "value": "3,726 ng/ml"}, {"measurement": "AUC of d-amphetamine (0-5 h)", "setting": "[1]; 30 mg/kg, 0-5 h", "value": "12,623* ng · h/ml"}, {"measurement": "Mean plasma amphetamine concentration", "setting": "[1]; 30 mg/kg, 0.5 h", "value": "2,583 ng/ml"}, {"measurement": "Mean plasma amphetamine concentration", "setting": "[1]; 30 mg/kg, 1 h", "value": "3,162 ng/ml"}, {"measurement": "Mean plasma amphetamine concentration", "setting": "[1]; 30 mg/kg, 3 h", "value": "2,620 ng/ml"}, {"measurement": "Mean plasma amphetamine concentration", "setting": "[1]; 30 mg/kg, 5 h", "value": "1,535 ng/ml"}, {"measurement": "Mean plasma amphetamine concentration", "setting": "[1]; 30 mg/kg, 8 h", "value": 164, "unit": "ng/mL"}, {"measurement": "Cmax of d-amphetamine", "setting": "[1]; 60 mg/kg", "value": "4,101 ng/ml"}, {"measurement": "AUC of d-amphetamine (0-[…])", "setting": "[1]; 60 mg/kg, 0-[…]", "value": "5,081** ng · h/ml"}, {"measurement": "Mean plasma amphetamine concentration", "setting": "[1]; 60 mg/kg, 0.5 h", "value": "3,566 ng/ml"}, {"measurement": "Mean plasma amphetamine concentration", "setting": "[1]; 60 mg/kg, 1 h", "value": "3,556 ng/ml"}, {"measurement": "AUC of d-amphetamine", "setting": "[1]; […]", "value": 481, "unit": "ng·h/mL"}, {"measurement": "Cmax of d-amphetamine", "setting": "[1]; […]", "value": 133, "unit": "ng/mL"}, {"measurement": "Tmax of d-amphetamine", "setting": "[1]; […]", "value": 56.3, "unit": "min"}, {"measurement": "Tmax, Percent (of Amp)", "setting": "[1]; […]", "value": 100, "unit": "%"}, {"measurement": "Mean plasma amphetamine concentration", "setting": "[1]; […], 0 h", "value": 0, "unit": "ng/mL"}, {"measurement": "Mean plasma amphetamine concentration", "setting": "[1]; […], 0.5 h", "value": 126, "unit": "ng/mL"}, {"measurement": "Mean plasma amphetamine concentration", "setting": "[1]; […], 1 h", "value": 101, "unit": "ng/mL"}, {"measurement": "Mean plasma amphetamine concentration", "setting": "[1]; […], 3 h", "value": 66, "unit": "ng/mL"}, {"measurement": "Mean plasma amphetamine concentration", "setting": "[1]; […], 5 h", "value": 40, "unit": "ng/mL"}, {"measurement": "Mean plasma amphetamine concentration", "setting": "[1]; […], 8 h", "value": 17, "unit": "ng/mL"}, {"measurement": "Tmax of d-amphetamine", "setting": "[2]; Females", "value": 60, "unit": "min"}, {"measurement": "Tmax of d-amphetamine, Percent (of Amp)", "setting": "[2]; Females", "value": 100, "unit": "%"}, {"measurement": "Tmax of d-amphetamine", "setting": "[2]; Males", "value": 60, "unit": "min"}, {"measurement": "Tmax of d-amphetamine, Percent (of Amp)", "setting": "[2]; Males", "value": 100, "unit": "%"}]}
{"molecule": "CC(Cc1ccccc1)NC(=O)C(N)CCCCN", "note": "[L-lysine-d-amphetamine, 2,6-diaminohexanoic acid-(1-methyl-2-phenylethyl)-amide]", "values": [{"measurement": "Duration of action", "setting": "children with ADHD; children 6-12, SKAMP", "value": 12, "unit": "h"}, {"measurement": "Onset of significant effects post morning dose", "setting": "children with ADHD; children 6-12, SKAMP", "value": "≤ 2", "unit": "h"}, {"measurement": "SKAMP-Deportment score compared to placebo", "setting": "children with ADHD; children 6-12, once daily for 1 week each treatment", "value": "highly effective compared to placebo"}]}
